{"source": "patent US11731962B2", "about": "“LpxC inhibitor and methods of making” (priority 2020, dated 2023)", "type_in_all_cases": "cell-based", "key": {"[1]": {"system": "gram-negative and gram-positive bacterial strains", "assay": "Bacterial susceptibility testing, whole panel", "conditions": "summary of Table 1", "procedure": "(§1) Minimal inhibitory concentrations (MIC) against a variety of gram-negative and gram-positive bacterial strains were determined by the broth microdilution method in accordance with the Clinical and Laboratory Standards Institute (CLSI) guidelines. In brief, organism suspensions were adjusted to a 0.5 McFarland standard to yield a final inoculum between 3×10^5 and 7×10^5 colony-forming units (CFU)/mL. Drug dilutions and inocula were made in sterile, cation adjusted Mueller-Hinton Broth (Beckton Dickinson). An inoculum volume of 100 μL was added to wells containing 100 μL of broth with 2-fold serial dilutions of drug. All inoculated microdilution trays were incubated in ambient air at 35° C. for 18-24 h. Following incubation, the lowest concentration of the drug that prevented visible growth (OD600 nm<0.05) was recorded as the MIC. Performance of the assay was monitored by the use of laboratory quality-control strains and levofloxacin, a compound with a defined MIC spectrum, in accordance with CLSI guidelines."}, "[2]": {"system": "E. coli ATCC 25922", "assay": "Bacterial susceptibility testing, broth microdilution MIC", "conditions": "Escherichia coli, ATCC25922", "procedure": "as §1"}, "[3]": {"system": "S. pyogenes ATCC 12384", "assay": "Bacterial susceptibility testing, broth microdilution MIC", "conditions": "Streptococcus pyogenes, ATCC12384, 35° C., 18-24 h", "procedure": "as §1"}, "[4]": {"system": "N. cyriacigeorgica complex NBQAS 3295", "assay": "Bacterial susceptibility testing, broth microdilution MIC", "procedure": "as §1"}, "[5]": {"system": "C. sordellii ATCC 9714", "assay": "Bacterial susceptibility testing, broth microdilution MIC", "conditions": "Paraclostridium sordellii, ATCC9714, 35° C., 18-24 h", "procedure": "as §1"}, "[6]": {"system": "L. rhamnosus ATCC 53103", "assay": "Bacterial susceptibility testing, broth microdilution MIC", "conditions": "Lacticaseibacillus rhamnosus, ATCC53103, 35° C., 18-24 h", "procedure": "as §1"}, "[7]": {"system": "E. faecalis ATCC 29212", "assay": "Bacterial susceptibility testing, broth microdilution MIC", "conditions": "Enterococcus faecalis, ATCC29212, 35° C., 18-24 h", "procedure": "as §1"}, "[8]": {"system": "C. difficile ATCC 700057", "assay": "Bacterial susceptibility testing, broth microdilution MIC", "conditions": "Clostridioides difficile, ATCC700057, 35° C., 18-24 h", "procedure": "as §1"}, "[9]": {"system": "P. acnes ATCC 6919", "assay": "Bacterial susceptibility testing, broth microdilution MIC", "conditions": "Cutibacterium acnes, ATCC6919, 35° C., 18-24 h", "procedure": "as §1"}, "[10]": {"system": "S. pneumoniae ATCC 49619", "assay": "Bacterial susceptibility testing, broth microdilution MIC", "conditions": "Streptococcus pneumoniae, ATCC49619, 35° C., 18-24 h", "procedure": "as §1"}, "[11]": {"system": "P. anaerobius DSM 20357", "assay": "Bacterial susceptibility testing, broth microdilution MIC", "conditions": "Peptostreptococcus anaerobius, DSM20357, 35° C., 18-24 h", "procedure": "as §1"}, "[12]": {"system": "B. breve HM 412", "assay": "Bacterial susceptibility testing, broth microdilution MIC", "conditions": "Bifidobacterium breve, HM412, 35° C., 18-24 h", "procedure": "as §1"}, "[13]": {"system": "B. thuringiensis ATCC 35646", "assay": "Bacterial susceptibility testing, broth microdilution MIC", "conditions": "Bacillus thuringiensis, ATCC35646, 35° C., 18-24 h", "procedure": "as §1"}, "[14]": {"system": "S. epidermidis ATCC 35984", "assay": "Bacterial susceptibility testing, broth microdilution MIC", "conditions": "Staphylococcus epidermidis, ATCC35984, 35° C., 18-24 h", "procedure": "as §1"}, "[15]": {"system": "C. jeikeium NCTC 11914", "assay": "Bacterial susceptibility testing, broth microdilution MIC", "conditions": "Corynebacterium jeikeium, NCTC11914, 35° C., 18-24 h", "procedure": "as §1"}, "[16]": {"system": "S. aureus ATCC 29213", "assay": "Bacterial susceptibility testing, broth microdilution MIC", "conditions": "for MIC: Staphylococcus aureus, ATCC29213, S. aureus ATCC 29213, broth microdilution, 35° C., 18-24 h", "procedure": "as §1"}, "[17]": {"system": "L. monocytogenes ATCC 7644", "assay": "Bacterial susceptibility testing, broth microdilution MIC", "conditions": "Listeria monocytogenes, ATCC7644, 35° C., 18-24 h", "procedure": "as §1"}, "[18]": {"system": "K. pneumoniae ATCC 13883", "assay": "Bacterial susceptibility testing, broth microdilution MIC", "conditions": "Klebsiella pneumoniae, ATCC13883", "procedure": "as §1"}, "[19]": {"conditions": "E. coli ATCC 25922, broth microdilution, 35° C., 18-24 h, read-out: MIC"}}, "note": "Where two headings read alike, the source gives them in different places.", "data": [{"smiles": "C[C@@H](O)[C@H]1C(=O)N2C(C(=O)O)=C(S[C@@H]3CN[C@H](C(=O)N(C)C)C3)[C@H](C)[C@H]12", "note": "[Meropenem]", "values": [{"measurement": "activity against gram-positive bacteria", "setting": "[1]", "result": "do have activity against various strains of gram-positive bacteria"}, {"measurement": "MIC", "setting": "[2]; [19]", "result": 0.03, "unit": "µg/mL"}, {"measurement": "MIC", "setting": "[3]", "result": 0.008, "unit": "µg/mL"}, {"measurement": "MIC", "setting": "[4]", "result": "> 1", "unit": "µg/mL"}, {"measurement": "MIC", "setting": "[5]", "result": 0.015, "unit": "µg/mL"}, {"measurement": "MIC", "setting": "[6]", "result": "> 1", "unit": "µg/mL"}, {"measurement": "MIC", "setting": "[7]", "result": "> 1", "unit": "µg/mL"}, {"measurement": "MIC", "setting": "[8]", "result": 1, "unit": "µg/mL"}, {"measurement": "MIC", "setting": "[9]", "result": 0.06, "unit": "µg/mL"}, {"measurement": "MIC", "setting": "[10]", "result": 0.06, "unit": "µg/mL"}, {"measurement": "MIC", "setting": "[11]", "result": "> 1", "unit": "µg/mL"}, {"measurement": "MIC", "setting": "[12]", "result": "> 1", "unit": "µg/mL"}, {"measurement": "MIC", "setting": "[13]", "result": 0.06, "unit": "µg/mL"}, {"measurement": "MIC", "setting": "[14]", "result": "> 1", "unit": "µg/mL"}, {"measurement": "MIC", "setting": "[15]", "result": "> 1", "unit": "µg/mL"}]}, {"smiles": "N#CC1CN(C[C@@H](Cc2ncnc(O)c2O)c2ccc(C#Cc3ccc(CN4CCOCC4)cc3)cc2)C1", "note": "[Compound A, (S)-1-(3-(5,6-dihydroxypyrimidin-4-yl)-2-(4-((4-(morpholinomethyl)phenyl)ethynyl)phenyl)propyl)azetidine-3-carbonitrile]", "values": [{"measurement": "selectivity for gram-negative bacteria over gram-positive bacteria", "setting": "[1]", "result": "high selectivity"}, {"measurement": "MIC", "setting": "[2]; [19]", "result": 0.5, "unit": "µg/mL"}, {"measurement": "MIC", "setting": "[2]; E. coli cell lines, strain not named, read-out: MIC values", "result": "< 1", "unit": "µg/mL"}, {"measurement": "MIC", "setting": "[3]", "result": "> 64", "unit": "µg/mL"}, {"measurement": "MIC", "setting": "[4]", "result": "> 64", "unit": "µg/mL"}, {"measurement": "MIC", "setting": "[5]", "result": "> 64", "unit": "µg/mL"}, {"measurement": "MIC", "setting": "[16]", "result": "> 64", "unit": "µg/mL"}, {"measurement": "inhibition of gram-positive bacterial cell lines", "setting": "[16]; gram-positive bacterial cell lines, such as S. aureus", "result": "does not inhibit"}, {"measurement": "MIC", "setting": "[6]", "result": "> 64", "unit": "µg/mL"}, {"measurement": "MIC", "setting": "[7]", "result": "> 64", "unit": "µg/mL"}, {"measurement": "MIC", "setting": "[8]", "result": "> 64", "unit": "µg/mL"}, {"measurement": "MIC", "setting": "[9]", "result": "> 64", "unit": "µg/mL"}, {"measurement": "MIC", "setting": "[17]", "result": "> 64", "unit": "µg/mL"}, {"measurement": "MIC", "setting": "[18]; K. pneumoniae ATCC 13883, broth microdilution, 35° C., 18-24 h, read-out: MIC", "result": 0.5, "unit": "µg/mL"}, {"measurement": "MIC", "setting": "[18]; K. pneumoniae cell lines, strain not named, read-out: MIC values", "result": "< 1", "unit": "µg/mL"}, {"measurement": "MIC", "setting": "[10]", "result": "> 64", "unit": "µg/mL"}, {"measurement": "MIC", "setting": "[11]", "result": "> 64", "unit": "µg/mL"}, {"measurement": "MIC", "setting": "[12]", "result": "> 64", "unit": "µg/mL"}, {"measurement": "MIC", "setting": "[13]", "result": "> 64", "unit": "µg/mL"}, {"measurement": "MIC", "setting": "[14]", "result": "> 64", "unit": "µg/mL"}, {"measurement": "MIC", "setting": "[15]", "result": "> 64", "unit": "µg/mL"}]}, {"smiles": "C[C@H]1COc2c(N3CCN(C)CC3)c(F)cc3c(=O)c(C(=O)O)cn1c23", "note": "[Levofloxacin]", "values": [{"measurement": "MIC", "setting": "[2]; [19]", "result": 0.03, "unit": "µg/mL"}, {"measurement": "MIC", "setting": "[3]", "result": 0.5, "unit": "µg/mL"}, {"measurement": "MIC", "setting": "[4]", "result": 8, "unit": "µg/mL"}, {"measurement": "MIC", "setting": "[5]", "result": 1, "unit": "µg/mL"}, {"measurement": "MIC", "setting": "[16]", "result": 0.25, "unit": "µg/mL"}, {"measurement": "MIC", "setting": "[6]", "result": 1, "unit": "µg/mL"}, {"measurement": "MIC", "setting": "[7]", "result": 1, "unit": "µg/mL"}, {"measurement": "MIC", "setting": "[8]", "result": 4, "unit": "µg/mL"}, {"measurement": "MIC", "setting": "[9]", "result": 0.5, "unit": "µg/mL"}, {"measurement": "MIC", "setting": "[17]", "result": 1, "unit": "µg/mL"}, {"measurement": "MIC", "setting": "[10]", "result": 1, "unit": "µg/mL"}, {"measurement": "MIC", "setting": "[11]", "result": 0.5, "unit": "µg/mL"}, {"measurement": "MIC", "setting": "[12]", "result": 4, "unit": "µg/mL"}, {"measurement": "MIC", "setting": "[13]", "result": 0.125, "unit": "µg/mL"}, {"measurement": "MIC", "setting": "[14]", "result": 0.125, "unit": "µg/mL"}, {"measurement": "MIC", "setting": "[15]", "result": 1, "unit": "µg/mL"}]}]}
